Reference: US7951802B2, “Use of 7-azaindoles in the inhibition of c-Jun N-terminal kinase” (Eisai R&D Management Co., Ltd., priority 2007, dated 2011)

Target: JNK3 (Homo sapiens, UniProt P53779)
Assay: JNK3 SPA assay (phosphorylation of GST-c-Jun)
Format: biochemical
Details: 3.33 μM ATP, GST-c-Jun substrate, read-out: IC50 against JNK3
Procedure: JNK1, JNK2, JNK3—SPA Assay
JNK1, JNK2, JNK3—SPA Assay • 1. Compound is dissolved in DMSO to a convenient concentration and this is diluted in 10% DMSO to a five times concentrate of the desired starting concentration (frequently 1:100). • 2. 10 μl of 500 mM EDTA is added to alternative wells of the Opti-plate row, which will receive kinase reaction plus DMSO. This creates the negative control. • 3. For the JNK2 and JNK3 assay, compounds are prepared in six 2-fold dilutions with water and each concentration is tested in duplicate. For the JNK1 assay compounds are prepared in four 5-fold dilutions with water which are tested in triplicate. Controls are treated identically. • 4. 20 μl per well of each compound concentration is transferred to an Opti-plate, in duplicate. • 5. 30 μl (JNK2/3 SPA) or 50 μl (JNK1 SPA) of substrate solution (25 mM HEPES pH 7.5, 10 mM magnesium acetate with 3.33 μM ATP (JNK2/3) or 2 μM ATP (JNK1), approximately 7.5 kBq [γ-^33P] ATP, GST-c-Jun, in water) is added to each well. • 6. 50 μl (JNK2/3 SPA) or 30 μl (JNK1 SPA) of kinase solution (JNK in 25 mM HEPES pH 7.5, 10 mM Mg Acetate) is added to each well.
• 7. The plate is incubated for 30 minutes at room temperature. • 8. 100 μl of bead/stop solution is added to each well (5 mg/ml glutathione-PVT-SPA beads, 40 mM ATP in PBS). • 9. Plates are sealed and incubated for 30 minutes at room temperature, centrifuged for 10 minutes at 2500 g and counted. • 10. The IC50 values are calculated as the concentration of the compound being tested at which the phosphorylation of c-Jun is decreased to 50% of the control value.

JNK3, sequence (P53779 whole entry, species assumed): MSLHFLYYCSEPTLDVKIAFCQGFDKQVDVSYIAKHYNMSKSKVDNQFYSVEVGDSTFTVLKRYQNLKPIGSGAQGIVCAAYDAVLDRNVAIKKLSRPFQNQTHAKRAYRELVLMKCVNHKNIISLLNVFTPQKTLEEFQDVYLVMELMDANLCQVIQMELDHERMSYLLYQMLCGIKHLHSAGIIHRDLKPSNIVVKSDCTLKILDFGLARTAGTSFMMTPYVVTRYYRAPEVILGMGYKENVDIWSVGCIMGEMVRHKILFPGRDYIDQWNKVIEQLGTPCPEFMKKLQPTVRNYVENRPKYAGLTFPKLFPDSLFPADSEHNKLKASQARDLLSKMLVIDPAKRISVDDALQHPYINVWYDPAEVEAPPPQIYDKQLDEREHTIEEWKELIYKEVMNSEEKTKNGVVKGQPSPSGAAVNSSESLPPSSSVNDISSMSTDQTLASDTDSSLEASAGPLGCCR

IC50 [nM] | SMILES
575 | Cc1csc(-c2c[nH]c3ncc([C@H]4CC[C@H](N5CCOCC5)CC4)cc23)n1 [Compound I-61, 4-((1r,4r)-4-(3-(4-methylthiazol-2-yl)-1H-pyrrolo[2,3-b]pyridin-5-yl)cyclohexyl)morpholine]
1100 | FC(F)(F)c1csc(-c2c[nH]c3ncc([C@H]4CC[C@@H](N5CCOCC5)CC4)cc23)n1 [Compound I-70, 4-((1s,4s)-4-(3-(4-(trifluoromethyl)thiazol-2-yl)-1H-pyrrolo[2,3-b]pyridin-5-yl)cyclohexyl)morpholine]
3310 | Cc1nc(-c2c[nH]c3ncc([C@H]4CC[C@H](N5CCCC5)CC4)cc23)cs1 [Compound I-74, 2-methyl-4-(5-((1r,4r)-4-(pyrrolidin-1-yl)cyclohexyl)-1H-pyrrolo[2,3-b]pyridin-3-yl)thiazole]
> 1000 | Cc1nc(-c2c[nH]c3ncc([C@H]4CC[C@H](N5CCCOCC5)CC4)cc23)cs1 [Compound I-75, 4-((1r,4r)-4-(3-(2-methylthiazol-4-yl)-1H-pyrrolo[2,3-b]pyridin-5-yl)cyclohexyl)-1,4-oxazepane]
309 | CN1CCC(c2csc(-c3c[nH]c4ncc([C@H]5CC[C@@H](N6CCOCC6)CC5)cc34)n2)CC1 [Compound I-79, 4-((1s,4s)-4-(3-(4-(1-methylpiperidin-4-yl)thiazol-2-yl)-1H-pyrrolo[2,3-b]pyridin-5-yl)cyclohexyl)morpholine]
513 | FC(F)(F)c1csc(-c2c[nH]c3ncc([C@H]4CC[C@H](N5CCCOCC5)CC4)cc23)n1 [Compound I-80, 4-((1r,4r)-4-(3-(4-(trifluoromethyl)thiazol-2-yl)-1H-pyrrolo[2,3-b]pyridin-5-yl)cyclohexyl)-1,4-oxazepane]
603 | CN1CCN([C@H]2CC[C@@H](c3cnc4[nH]cc(-c5nc(C(F)(F)F)cs5)c4c3)CC2)CC1 [Compound I-83, 2-(5-((1s,4s)-4-(4-methylpiperazin-1-yl)cyclohexyl)-1H-pyrrolo[2,3-b]pyridin-3-yl)-4-(trifluoromethyl)thiazole]
575 | c1csc(-c2c[nH]c3ncc([C@H]4CC[C@H](N5CCOCC5)CC4)cc23)n1 [Compound I-89, 4-((1r,4r)-4-(3-(thiazol-2-yl)-1H-pyrrolo[2,3-b]pyridin-5-yl)cyclohexyl)morpholine]
1320 | c1csc(-c2c[nH]c3ncc([C@H]4CC[C@@H](N5CCOCC5)CC4)cc23)n1 [Compound I-90, 4-((1s,4s)-4-(3-(thiazol-2-yl)-1H-pyrrolo[2,3-b]pyridin-5-yl)cyclohexyl)morpholine]
> 1000 | Cc1nc(-c2c[nH]c3ncc([C@H]4CC[C@@H](N5CCN(C)CC5)CC4)cc23)cs1 [Compound I-92, 2-methyl-4-(5-((1s,4s)-4-(4-methylpiperazin-1-yl)cyclohexyl)-1H-pyrrolo[2,3-b]pyridin-3-yl)thiazole]
692 | CN1CCC(c2nc(-c3c[nH]c4ncc([C@H]5CC[C@H](N6CCOCC6)CC5)cc34)cs2)CC1 [Compound I-94, 4-((1r,4r)-4-(3-(2-(1-methylpiperidin-4-yl)thiazol-4-yl)-1H-pyrrolo[2,3-b]pyridin-5-yl)cyclohexyl)morpholine]
229 | CN1CCC(c2nc(-c3c[nH]c4ncc([C@H]5CC[C@H](N6CCN(C)CC6)CC5)cc34)cs2)CC1 [Compound I-96, 4-(5-((1r,4r)-4-(4-methylpiperazin-1-yl)cyclohexyl)-1H-pyrrolo[2,3-b]pyridin-3-yl)-2-(1-methylpiperidin-4-yl)thiazole]
794 | CN1CCC(c2nc(-c3c[nH]c4ncc([C@H]5CC[C@H](N6CCCC6)CC5)cc34)cs2)CC1 [Compound I-98, 2-(1-methylpiperidin-4-yl)-4-(5-((1r,4r)-4-(pyrrolidin-1-yl)cyclohexyl)-1H-pyrrolo[2,3-b]pyridin-3-yl)thiazole]
363 | CN1CCC(c2nc(-c3c[nH]c4ncc(C5=CCC(N6CCCOCC6)CC5)cc34)cs2)CC1 (stereo not shown) [Compound I-101, 4-(4-(3-(2-(1-methylpiperidin-4-yl)thiazol-4-yl)-1H-pyrrolo[2,3-b]pyridin-5-yl)cyclohex-3-enyl)-1,4-oxazepane]

Second part, the compound before the results:

SMILES | IC50 [nM]
c1nc(-c2c[nH]c3ncc([C@H]4CC[C@H](N5CCOCC5)CC4)cc23)cs1 [Compound I-59, 4-((1r,4r)-4-(3-(thiazol-4-yl)-1H-pyrrolo[2,3-b]pyridin-5-yl)cyclohexyl)morpholine] | 813
c1ncc(-c2c[nH]c3ncc([C@H]4CC[C@H](N5CCOCC5)CC4)cc23)s1 [Compound I-60, 4-((1r,4r)-4-(3-(thiazol-5-yl)-1H-pyrrolo[2,3-b]pyridin-5-yl)cyclohexyl)morpholine] | 110
Cc1cnc(-c2c[nH]c3ncc([C@H]4CC[C@H](N5CCOCC5)CC4)cc23)s1 [Compound I-62, 4-((1r,4r)-4-(3-(5-methylthiazol-2-yl)-1H-pyrrolo[2,3-b]pyridin-5-yl)cyclohexyl)morpholine] | 871
CCOc1nc(-c2c[nH]c3ncc([C@H]4CC[C@H](N5CCOCC5)CC4)cc23)cs1 [Compound I-63, 4-((1r,4r)-4-(3-(2-ethoxythiazol-4-yl)-1H-pyrrolo[2,3-b]pyridin-5-yl)cyclohexyl)morpholine] | 302
FC(F)(F)c1csc(-c2c[nH]c3ncc([C@H]4CC[C@H](N5CCOCC5)CC4)cc23)n1 [Compound I-69, 4-((1r,4r)-4-(3-(4-(trifluoromethyl)thiazol-2-yl)-1H-pyrrolo[2,3-b]pyridin-5-yl)cyclohexyl)morpholine] | 447
Cc1nc(-c2c[nH]c3ncc([C@H]4CC[C@@H](N5CCCOCC5)CC4)cc23)cs1 [Compound I-76, 4-((1s,4s)-4-(3-(2-methylthiazol-4-yl)-1H-pyrrolo[2,3-b]pyridin-5-yl)cyclohexyl)-1,4-oxazepane] | > 1000
CN1CCC(c2csc(-c3c[nH]c4ncc([C@H]5CC[C@H](N6CCOCC6)CC5)cc34)n2)CC1 [Compound I-78, 4-((1r,4r)-4-(3-(4-(1-methylpiperidin-4-yl)thiazol-2-yl)-1H-pyrrolo[2,3-b]pyridin-5-yl)cyclohexyl)morpholine] | 295
CN1CCN([C@H]2CC[C@H](c3cnc4[nH]cc(-c5nc(C(F)(F)F)cs5)c4c3)CC2)CC1 [Compound I-82, 2-(5-((1r,4r)-4-(4-methylpiperazin-1-yl)cyclohexyl)-1H-pyrrolo[2,3-b]pyridin-3-yl)-4-(trifluoromethyl)thiazole] | 269
FC(F)(F)c1csc(-c2c[nH]c3ncc([C@H]4CC[C@H](N5CCCC5)CC4)cc23)n1 [Compound I-84, 2-(5-((1r,4r)-4-(pyrrolidin-1-yl)cyclohexyl)-1H-pyrrolo[2,3-b]pyridin-3-yl)-4-(trifluoromethyl)thiazole] | 692
FC(F)(F)c1csc(-c2c[nH]c3ncc([C@H]4CC[C@@H](N5CCCC5)CC4)cc23)n1 [Compound I-85, 2-(5-((1s,4s)-4-(pyrrolidin-1-yl)cyclohexyl)-1H-pyrrolo[2,3-b]pyridin-3-yl)-4-(trifluoromethyl)thiazole] | 1820
CN1CCC(c2nc(-c3c[nH]c4ncc(C5=CCC(N6CCOCC6)CC5)cc34)cs2)CC1 (stereo not shown) [Compound I-100, 4-(4-(3-(2-(1-methylpiperidin-4-yl)thiazol-4-yl)-1H-pyrrolo[2,3-b]pyridin-5-yl)cyclohex-3-enyl)morpholine] | 447
